{
  "source": "patent US20220304972A1",
  "about": "“COMBINATION THERAPY AND BIOMARKER INDICATING EFFICACY THEREOF” (Sumitomo Dainippon Pharma Co., Ltd., priority 2019, published 2022)",
  "origin": "cited, not measured here",
  "test_system": "CRC patients",
  "note": "Like-named read-outs stand apart in the source and are kept apart here.",
  "data": [
    {"substance": "nivolumab: anti-PD-1 antibody, binds to PD-1", "values": [
      {"measurement": "ORR", "setting": "CRC, N=14 (1/14), Brahmer 2010", "result": 7},
      {"measurement": "ORR", "setting": "Refractory CRC, N=19, Topialan et al. 2012, NCT00730639", "result": 0}
    ]},
    {"substance": "pembrolizumab: anti-PD-1 antibody, binds to PD-1", "values": [
      {"measurement": "ORR", "setting": "MSS CRC, N=18, Le et al. 2015, NCT01876511", "result": 0},
      {"measurement": "ORR", "setting": "PD-1 positive MSS CRC, N=22, O' Neil et al. 2017, NCT02054806", "result": 0}
    ]},
    {"substance": "atezolizumab: anti-PD-L1 antibody, binds to PD-L1", "values": [
      {"measurement": "ORR", "setting": "MSS CRC, N=90 (2/90), Bendell et al. 2018, NCT02788279", "result": 2.2, "unit": "%"}
    ]}
  ]
}
